# Results as given in US6156700A, “3-(1,2-Benzisothiazol- and isoxazol-5-yl)-2,4(1H,3H)-pyrimidinedione or thione and 3-(1,2-benzisothiazol- and isoxazol-5-yl)-4(3H)-pyrimidinone or thione herbicidal agents” (American Cyanmid Company, priority 1998, dated 2000).
# How the values were obtained:
# [1] = system: Soybean, Williams, Glycine max; assay: Postemergence herbicidal evaluation, GLXMAW; format: in vivo, (L.) Merr. cv Williams; conditions: 0.0630 kg/ha
# Procedure, shortened: (§1)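 Each compound, dispersed in a 1:1 acetone–water mixture bearing 0.5% TWEEN 20, was sprayed onto roughly two-week-old seedlings at about 0.0157–0.500 kg/ha. Visual 0–9 ratings against control were made 4–5 weeks post-treatment and averaged over repeat tests.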
# Galium, Galium aparine = assay: Preemergence herbicidal evaluation, GALAP; format: in vivo; conditions: 0.2500 kg/ha
# Procedure, shortened: (§2)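 Sow seeds in soil-filled cups; spray aqueous acetone compound solution at about 0.0156–0.500 kg/ha; keep on greenhouse benches with routine watering; after four to five weeks, rate visual injury 0–9 compared with control plants.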
# [2] = system: Soybean, Williams, Glycine max; assay: Preemergence herbicidal evaluation, GLXMAW; format: in vivo, (L.) Merr. cv Williams; conditions: 0.2500 kg/ha
# Procedure, shortened: as §2
# [3] = system: Foxtail, Green, Setaria viridis; assay: Preemergence herbicidal evaluation, SETVI; format: in vivo, (L.) Beau; conditions: 0.2500 kg/ha
# Procedure, shortened: as §2
# [4] = system: Rice, Tebonnet, Oryza sativa; assay: Preemergence herbicidal evaluation, ORYSAT; format: in vivo, (L.) Tebonnet; conditions: 0.2500 kg/ha
# Procedure, shortened: as §2
# [5] = system: Lambsquarters, Common, Chenopodium album; assay: Postemergence herbicidal evaluation, CHEAL; format: in vivo, L.
# Procedure, shortened: as §1
# Soybean, Glycine max [6] = assay: Postemergence herbicidal evaluation, GLXMA; format: in vivo, (L.) Merr.; conditions: 0.2500 kg/ha
# Method: (§3) In the tests, seedling plants are grown in jiffy flats for about two weeks. The test compounds are dispersed in 50/50 acetone/water mixtures containing 0.5% TWEEN®20, a polyoxyethylene sorbitan monolaurate surfactant of Atlas Chemical Industries, in sufficient quantities to provide the equivalent of about 0.0157 kg to 0.500 kg per hectare of active compound when applied to the plants through a spray nozzle operating at 40 psi for a predetermined time. After spraying, the plants are placed on greenhouse benches and are cared for in accordance with conventional greenhouse procedures. From four to five weeks after treatment, the seedling plants are examined and rated according to the rating system set forth below. Where more than one test is involved for a given compound, the data are averaged.
# (§4) Results of herbicide evaluation are expressed on a rating scale (0-9). The scale is based upon a visual observation of plant stand, vigor, malformation, size, chlorosis and overall plant appearance as compared with a control.
# [7] = system: Lambsquarters, Common, Chenopodium album; assay: Preemergence herbicidal evaluation, CHEAL; format: in vivo, L.; conditions: 0.2500 kg/ha
# Procedure, shortened: as §2
# [8] = system: Morningglory, Ivyleaf, Ipomoea hederacea; assay: Postemergence herbicidal evaluation, IPOHE; format: in vivo, (L.) Jacq.; conditions: 0.0630 kg/ha
# Procedure, shortened: as §1
# [9] = system: SAGPY Arrowhead (Pygmaea); assay: Preemergence weed control, flooded paddy (Table III); format: in vivo, Sagittaria pygmaea; parameters: scale not given here
# Method: (§5) Preemergence herbicidal activity under flooded paddy conditions is determined as follows: plant seeds or propagating organs are planted in the top 0.5 cm of silt loam soil in 32 oz. plastic containers with a diameter of 10.5 cm and no drainage holes. Water is added to these containers and maintained at 1.5 to 3 cm above the soil surface for the duration of the experiment. The test compounds are applied as aqueous/acetone mixtures 50/50 v/v pipetted directly into the flood water to give the equivalent of about 0.0313 to 0.500 kg/ha of active ingredient. The treated containers are placed on greenhouse benches and cared for in accordance with conventional greenhouse procedures. Three to four weeks after treatment, the test is terminated and each container is examined and herbicidal effect rated according to the rating system provided in Example 185. The compounds evaluated are reported by compound number given in Example 185.
# [10] = system: Velvetleaf, Abutilon theophrasti; assay: Postemergence herbicidal evaluation, ABUTH; format: in vivo, Medic.
# Procedure, shortened: as §1
# [11] = system: Foxtail, Green, Setaria viridis; assay: Postemergence herbicidal evaluation, SETVI; format: in vivo, (L.) Beau
# Procedure, shortened: as §1
# MOOVA Monochoria = assay: Preemergence weed control, flooded paddy (Table III); format: in vivo, Monochoria vaginalis; parameters: scale not given here
# Method: as §5
# [12] = system: Ragweed, Common, Ambrosia artemisifolia; assay: Postemergence herbicidal evaluation, AMBEL; format: in vivo, L.
# Procedure, shortened: as §1
# [13] = system: Morningglory Spp., Ipomoea Spp.; assay: Postemergence herbicidal evaluation, IPOSS; format: in vivo; conditions: 0.2500 kg/ha
# Method: as §3, §4
# [14] = system: Sicklepod, Cassia obtusifolia; assay: Preemergence herbicidal evaluation, CASOB; format: in vivo, L.; conditions: 0.2500 kg/ha
# Procedure, shortened: as §2
# [15] = system: ECHORC Watergrass (Calif.); assay: Preemergence weed control, flooded paddy (Table III); format: in vivo, Echinochloa oryzoides; parameters: scale not given here
# Method: as §5
# [16] = system: Barnyardgrass, Echinochloa crus-galli; assay: Preemergence herbicidal evaluation, ECHCG; format: in vivo, (L.) Beau; conditions: 0.2500 kg/ha
# Procedure, shortened: as §2
# Corn, Field, Zea mays [17] = assay: Postemergence herbicidal evaluation, ZEAMX; format: in vivo, L.
# Procedure, shortened: as §1
# [18] = system: Sicklepod, Cassia obtusifolia; assay: Postemergence herbicidal evaluation, CASOB; format: in vivo, L.
# Procedure, shortened: as §1
# [19] = system: Velvetleaf, Abutilon theophrasti; assay: Preemergence herbicidal evaluation, ABUTH; format: in vivo, Medic.; conditions: 0.2500 kg/ha
# Procedure, shortened: as §2
# [20] = system: Morningglory Spp., Ipomoea Spp.; assay: Preemergence herbicidal evaluation, IPOSS; format: in vivo; conditions: 0.2500 kg/ha
# Source text: as §4
# (§6) The preemergence herbicidal activity of the test compounds of the present invention is exemplified by the following tests in which the seeds of a variety of monocotyledonous and dicotyledonous plants are separately mixed with potting soil and planted on top of approximately one inch of soil in separate pint cups. After planting, the cups are sprayed with the selected aqueous acetone solution containing test compound in sufficient quantity to provide the equivalent of about 0.0156 to 0.500 kg per hectare of test compound per cup. The treated cups are then placed on greenhouse benches, watered and cared for in accordance with conventional greenhouse procedures. From four to five weeks after treatment, the tests are terminated and each cup is examined and rated according to the rating system provided in Example 185.
# (§7) The compounds evaluated are reported by compound number given in Example 185.
# Corn, Field, Zea mays [21] = assay: Preemergence herbicidal evaluation, ZEAMX; format: in vivo, L.; conditions: 0.2500 kg/ha
# Procedure, shortened: as §2
# Soybean, Glycine max [22] = assay: Preemergence herbicidal evaluation, GLXMA; format: in vivo, (L.) Merr.; conditions: 0.2500 kg/ha
# Source text: as §4, §6, §7
# [23] = system: Morningglory, Ivyleaf, Ipomoea hederacea; assay: Preemergence herbicidal evaluation, IPOHE; format: in vivo, (L.) Jacq.; conditions: 0.2500 kg/ha
# Procedure, shortened: as §2
compound,measurement,setting,value
"COC(=O)COc1ccc(C)cc1-c1nsc2ccc(-n3c(=O)cc(C(F)(F)F)n(C)c3=O)cc12 [Compound 2, Methyl {{2-{5-[3,6-dihydro-3-methyl-4-(trifluoromethyl) -2,6-dioxo-1(2H)-pyrimidinyl]-1,2-benzisothiazol-3-yl]-p-tolyl}oxy}acetate]",herbicide rating (0-9),[1],8.8
same,herbicide rating (0-9),"Galium, Galium aparine",9.0
same,herbicide rating (0-9),[2],8.5
same,herbicide rating (0-9),[3],9.0
same,herbicide rating (0-9),[4],7.7
same,herbicide rating (0-9),[5]; 0.0630 kg/ha,9.0
same,herbicide rating (0-9),[5]; 0.2500 kg/ha,9.0
same,herbicide rating (0-9),"Soybean, Glycine max [6]",9.0
same,herbicide rating (0-9),[7],9.0
same,herbicide rating (0-9),[8],9.0
same,herbicidal effect rating,[9]; 0.0313 kg/ha,0.0
same,herbicidal effect rating,[9]; 0.0625 kg/ha,0.0
same,herbicidal effect rating,[9]; 0.1250 kg/ha,2.0
same,herbicidal effect rating,[9]; 0.2500 kg/ha,4.0
same,herbicidal effect rating,[9]; 0.5000 kg/ha,9.0
same,herbicide rating (0-9),[10]; 0.0630 kg/ha,9.0
same,herbicide rating (0-9),[10]; 0.2500 kg/ha,9.0
same,herbicide rating (0-9),[11]; 0.0630 kg/ha,9.0
same,herbicide rating (0-9),[11]; 0.2500 kg/ha,9.0
same,herbicidal effect rating,MOOVA Monochoria; 0.0313 kg/ha,7.0
same,herbicidal effect rating,MOOVA Monochoria; 0.0625 kg/ha,9.0
same,herbicidal effect rating,MOOVA Monochoria; 0.1250 kg/ha,9.0
same,herbicidal effect rating,MOOVA Monochoria; 0.2500 kg/ha,9.0
same,herbicidal effect rating,MOOVA Monochoria; 0.5000 kg/ha,9.0
same,herbicide rating (0-9),[12]; 0.0630 kg/ha,9.0
same,herbicide rating (0-9),[12]; 0.2500 kg/ha,9.0
same,herbicide rating (0-9),[13],9.0
same,herbicide rating (0-9),[14],9.0
same,herbicidal effect rating,[15]; 0.0313 kg/ha,9.0
same,herbicidal effect rating,[15]; 0.0625 kg/ha,9.0
same,herbicidal effect rating,[15]; 0.1250 kg/ha,9.0
same,herbicidal effect rating,[15]; 0.2500 kg/ha,9.0
same,herbicidal effect rating,[15]; 0.5000 kg/ha,9.0
same,herbicide rating (0-9),[16],8.3
same,herbicide rating (0-9),"Corn, Field, Zea mays [17]; 0.0630 kg/ha",8.0
same,herbicide rating (0-9),"Corn, Field, Zea mays [17]; 0.2500 kg/ha",7.5
same,herbicide rating (0-9),[18]; 0.0630 kg/ha,6.5
same,herbicide rating (0-9),[18]; 0.2500 kg/ha,9.0
same,herbicide rating (0-9),[19],9.0
same,herbicide rating (0-9),[20],9.0
same,herbicide rating (0-9),"Corn, Field, Zea mays [21]",5.6
same,herbicide rating (0-9),"Soybean, Glycine max [22]",7.0
same,herbicide rating (0-9),[23],9.0
COC(=O)C(C)Oc1ccc(C)cc1-c1nsc2ccc(-n3c(=O)cc(C(F)(F)F)n(C)c3=O)cc12 (centres unmarked) [Compound 3],herbicide rating (0-9),[1],7.0
same,herbicide rating (0-9),"Galium, Galium aparine",7.6
same,herbicide rating (0-9),[2],5.0
same,herbicide rating (0-9),[3],9.0
same,herbicide rating (0-9),[4],6.8
same,herbicide rating (0-9),[5]; 0.0630 kg/ha,9.0
same,herbicide rating (0-9),[5]; 0.2500 kg/ha,9.0
same,herbicide rating (0-9),"Soybean, Glycine max [6]",7.5
same,herbicide rating (0-9),[7],9.0
same,herbicide rating (0-9),[8],9.0
same,herbicidal effect rating,[9]; 0.0313 kg/ha,0.0
same,herbicidal effect rating,[9]; 0.0625 kg/ha,2.0
same,herbicidal effect rating,[9]; 0.1250 kg/ha,6.0
same,herbicidal effect rating,[9]; 0.2500 kg/ha,8.0
same,herbicidal effect rating,[9]; 0.5000 kg/ha,9.0
same,herbicide rating (0-9),[10]; 0.0630 kg/ha,9.0
same,herbicide rating (0-9),[10]; 0.2500 kg/ha,9.0
same,herbicide rating (0-9),[11]; 0.0630 kg/ha,9.0
same,herbicide rating (0-9),[11]; 0.2500 kg/ha,9.0
same,herbicidal effect rating,MOOVA Monochoria; 0.0313 kg/ha,9.0
same,herbicidal effect rating,MOOVA Monochoria; 0.0625 kg/ha,9.0
same,herbicidal effect rating,MOOVA Monochoria; 0.1250 kg/ha,9.0
same,herbicidal effect rating,MOOVA Monochoria; 0.2500 kg/ha,9.0
same,herbicidal effect rating,MOOVA Monochoria; 0.5000 kg/ha,9.0
same,herbicide rating (0-9),[12]; 0.0630 kg/ha,9.0
same,herbicide rating (0-9),[12]; 0.2500 kg/ha,9.0
same,herbicide rating (0-9),[13],9.0
same,herbicide rating (0-9),[14],9.0
same,herbicidal effect rating,[15]; 0.0313 kg/ha,9.0
same,herbicidal effect rating,[15]; 0.0625 kg/ha,9.0
same,herbicidal effect rating,[15]; 0.1250 kg/ha,9.0
same,herbicidal effect rating,[15]; 0.2500 kg/ha,9.0
same,herbicidal effect rating,[15]; 0.5000 kg/ha,9.0
same,herbicide rating (0-9),[16],8.3
same,herbicide rating (0-9),"Corn, Field, Zea mays [17]; 0.0630 kg/ha",8.3
same,herbicide rating (0-9),"Corn, Field, Zea mays [17]; 0.2500 kg/ha",9.0
same,herbicide rating (0-9),[18]; 0.0630 kg/ha,9.0
same,herbicide rating (0-9),[18]; 0.2500 kg/ha,9.0
same,herbicide rating (0-9),[19],9.0
same,herbicide rating (0-9),[20],9.0
same,herbicide rating (0-9),"Corn, Field, Zea mays [21]",7.3
same,herbicide rating (0-9),"Soybean, Glycine max [22]",4.0
same,herbicide rating (0-9),[23],9.0
